In ChEMBL document CHEMBL5126508, “Therapeutic potential of quinazoline derivatives for Alzheimer's disease: A comprehensive review” (Eur J Med Chem, 2022) one finds viability and IC50 data, which are given here for four compounds.

For orientation: IC50 means the concentration at which inhibition is half-maximal. Low readings indicate inhibition by little substance, high ones a need for much substance.

Bounds are passed on as bounds.

Test [1] relates to SH-SY5Y. Briefly: Cytotoxicity against human SH-SY5Y cells assessed as cell viability at 100 uM relative to control. It is filed as functional. The note with it: read-out: Activity.
The target of test [2] is Acetylcholinesterase (Homo sapiens, UniProt P22303). Briefly: Inhibition of AChE (unknown origin) by Ellman's method. On the technique in general: DTNB colorimetry detects thiols as they appear.
Test [3] deals with T1, Amine oxidase [flavin-containing] A (Homo sapiens, UniProt P21397).
T1 sequence (P21397 whole entry): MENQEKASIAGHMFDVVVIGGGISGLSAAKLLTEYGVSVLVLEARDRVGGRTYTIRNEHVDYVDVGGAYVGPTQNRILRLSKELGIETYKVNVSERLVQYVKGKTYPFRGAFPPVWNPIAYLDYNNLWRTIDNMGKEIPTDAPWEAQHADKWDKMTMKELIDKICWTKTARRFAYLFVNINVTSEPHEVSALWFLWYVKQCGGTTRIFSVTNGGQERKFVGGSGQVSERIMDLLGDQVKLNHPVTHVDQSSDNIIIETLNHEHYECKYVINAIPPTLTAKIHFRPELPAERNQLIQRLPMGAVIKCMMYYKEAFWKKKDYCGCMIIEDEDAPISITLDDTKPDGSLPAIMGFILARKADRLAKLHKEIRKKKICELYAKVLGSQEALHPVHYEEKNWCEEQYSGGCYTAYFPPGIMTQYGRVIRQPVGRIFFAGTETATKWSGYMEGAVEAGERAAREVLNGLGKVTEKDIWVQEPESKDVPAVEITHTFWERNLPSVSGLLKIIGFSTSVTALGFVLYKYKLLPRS
As to the kind of experiment: Inhibition of MAO-A (unknown origin).

For test [4], the target named is Amyloid-beta precursor protein (Homo sapiens, UniProt P05067). Briefly: Inhibition of amyloid beta 1 to 42 (unknown origin) […].
Test [5] addresses Cholinesterase (Homo sapiens, UniProt P06276). Briefly: Inhibition of BuChE (unknown origin) by Ellman's method.
Test [6] addresses Cyclin-dependent kinase 3 (Homo sapiens, UniProt Q00526). Briefly: Inhibition of CDK3 (unknown origin).
The target of test [7] is Cyclin-dependent kinase 4 (Homo sapiens, UniProt P11802). As to the kind of experiment: Inhibition of CDK4 (unknown origin).
The target of test [8] is Cyclin-dependent kinase 2 (Homo sapiens, UniProt P24941). As to the kind of experiment: Inhibition of CDK2 (unknown origin).
For test [9], the target named is Cyclin-dependent kinase 1 (Homo sapiens, UniProt P06493). As to the kind of experiment: Inhibition of CDK1 (unknown origin).
Test [10] deals with 3',5'-cyclic-AMP phosphodiesterase 4D (Homo sapiens, UniProt Q08499). Briefly: Inhibition of PDE4D2 (unknown origin).
For test [11], the target named is Phosphodiesterase 4 (Homo sapiens, UniProt P27815+Q08499+Q07343+Q08493). Briefly: Inhibition of PDE4 (unknown origin). It is filed as protein assay.

Sequence of Acetylcholinesterase (P22303 whole entry): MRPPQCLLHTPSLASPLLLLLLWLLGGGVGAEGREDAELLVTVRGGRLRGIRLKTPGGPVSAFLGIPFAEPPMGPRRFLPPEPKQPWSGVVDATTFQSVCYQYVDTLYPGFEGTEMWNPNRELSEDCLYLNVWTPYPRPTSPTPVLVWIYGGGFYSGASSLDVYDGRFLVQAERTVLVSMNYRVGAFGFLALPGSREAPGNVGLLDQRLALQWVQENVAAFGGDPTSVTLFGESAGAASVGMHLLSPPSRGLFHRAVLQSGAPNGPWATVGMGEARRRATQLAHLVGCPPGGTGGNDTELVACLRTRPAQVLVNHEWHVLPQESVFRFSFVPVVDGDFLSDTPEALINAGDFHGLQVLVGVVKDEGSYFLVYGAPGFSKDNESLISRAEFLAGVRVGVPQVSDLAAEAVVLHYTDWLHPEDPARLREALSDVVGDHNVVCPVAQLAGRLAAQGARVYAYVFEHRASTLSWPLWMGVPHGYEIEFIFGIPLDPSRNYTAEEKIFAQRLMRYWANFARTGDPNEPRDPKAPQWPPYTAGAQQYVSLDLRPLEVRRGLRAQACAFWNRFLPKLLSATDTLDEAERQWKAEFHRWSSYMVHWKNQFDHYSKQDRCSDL
Sequence of Cyclin-dependent kinase 3 (Q00526 whole entry): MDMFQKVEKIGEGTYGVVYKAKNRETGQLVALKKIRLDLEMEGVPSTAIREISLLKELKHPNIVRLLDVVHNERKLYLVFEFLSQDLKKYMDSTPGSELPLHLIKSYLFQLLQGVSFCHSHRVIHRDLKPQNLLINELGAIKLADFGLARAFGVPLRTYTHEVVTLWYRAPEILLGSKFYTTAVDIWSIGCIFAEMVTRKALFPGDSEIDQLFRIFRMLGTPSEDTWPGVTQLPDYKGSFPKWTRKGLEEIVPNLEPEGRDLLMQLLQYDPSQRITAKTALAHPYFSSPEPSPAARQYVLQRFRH
Sequence of Cholinesterase (P06276 whole entry): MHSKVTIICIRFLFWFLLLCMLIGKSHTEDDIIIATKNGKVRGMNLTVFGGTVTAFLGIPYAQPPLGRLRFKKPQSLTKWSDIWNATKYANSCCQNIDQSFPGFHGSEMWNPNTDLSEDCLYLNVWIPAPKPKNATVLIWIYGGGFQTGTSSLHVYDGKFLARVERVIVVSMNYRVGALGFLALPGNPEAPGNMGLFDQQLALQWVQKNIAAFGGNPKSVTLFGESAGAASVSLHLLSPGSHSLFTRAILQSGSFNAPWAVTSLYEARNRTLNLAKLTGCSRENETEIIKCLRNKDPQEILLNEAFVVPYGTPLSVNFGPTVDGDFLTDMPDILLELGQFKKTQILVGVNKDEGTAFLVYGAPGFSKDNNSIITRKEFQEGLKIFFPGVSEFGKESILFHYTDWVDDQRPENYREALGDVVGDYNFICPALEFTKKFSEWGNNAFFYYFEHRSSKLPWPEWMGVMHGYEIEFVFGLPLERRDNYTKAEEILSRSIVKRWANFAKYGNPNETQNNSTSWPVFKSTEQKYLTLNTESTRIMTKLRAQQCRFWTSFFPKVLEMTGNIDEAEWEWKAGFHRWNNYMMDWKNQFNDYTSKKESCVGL
Sequence of 3',5'-cyclic-AMP phosphodiesterase 4D (Q08499 whole entry): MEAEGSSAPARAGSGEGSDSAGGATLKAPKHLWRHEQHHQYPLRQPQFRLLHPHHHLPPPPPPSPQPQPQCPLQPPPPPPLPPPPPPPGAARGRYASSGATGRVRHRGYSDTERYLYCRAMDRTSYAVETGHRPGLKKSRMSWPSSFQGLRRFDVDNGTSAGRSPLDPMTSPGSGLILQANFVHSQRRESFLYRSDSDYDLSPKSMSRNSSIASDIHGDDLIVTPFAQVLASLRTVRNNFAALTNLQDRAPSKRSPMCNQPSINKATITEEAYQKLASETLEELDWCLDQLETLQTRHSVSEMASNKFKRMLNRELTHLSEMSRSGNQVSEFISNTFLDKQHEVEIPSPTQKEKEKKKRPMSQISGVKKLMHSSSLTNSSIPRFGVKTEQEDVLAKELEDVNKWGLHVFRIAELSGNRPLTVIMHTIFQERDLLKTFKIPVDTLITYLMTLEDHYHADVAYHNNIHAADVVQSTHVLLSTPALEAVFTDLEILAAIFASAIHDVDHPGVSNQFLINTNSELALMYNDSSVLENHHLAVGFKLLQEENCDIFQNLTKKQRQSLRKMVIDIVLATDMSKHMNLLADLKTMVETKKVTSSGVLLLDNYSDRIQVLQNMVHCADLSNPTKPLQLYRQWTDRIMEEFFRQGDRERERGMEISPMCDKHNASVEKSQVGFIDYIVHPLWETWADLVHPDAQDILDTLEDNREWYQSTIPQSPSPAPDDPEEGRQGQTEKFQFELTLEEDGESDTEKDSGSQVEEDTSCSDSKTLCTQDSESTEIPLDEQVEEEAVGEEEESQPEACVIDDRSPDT
Sequence of Cyclin-dependent kinase 4 (P11802 whole entry): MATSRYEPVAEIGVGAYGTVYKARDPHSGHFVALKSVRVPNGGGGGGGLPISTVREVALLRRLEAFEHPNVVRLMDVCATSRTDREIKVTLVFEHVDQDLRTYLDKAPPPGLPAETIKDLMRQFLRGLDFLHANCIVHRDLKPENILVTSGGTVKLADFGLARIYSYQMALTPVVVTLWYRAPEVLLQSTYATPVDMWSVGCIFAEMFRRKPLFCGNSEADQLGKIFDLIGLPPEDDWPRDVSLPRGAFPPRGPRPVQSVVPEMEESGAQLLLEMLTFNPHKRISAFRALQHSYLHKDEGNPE
Sequence of Amyloid-beta precursor protein (P05067 whole entry): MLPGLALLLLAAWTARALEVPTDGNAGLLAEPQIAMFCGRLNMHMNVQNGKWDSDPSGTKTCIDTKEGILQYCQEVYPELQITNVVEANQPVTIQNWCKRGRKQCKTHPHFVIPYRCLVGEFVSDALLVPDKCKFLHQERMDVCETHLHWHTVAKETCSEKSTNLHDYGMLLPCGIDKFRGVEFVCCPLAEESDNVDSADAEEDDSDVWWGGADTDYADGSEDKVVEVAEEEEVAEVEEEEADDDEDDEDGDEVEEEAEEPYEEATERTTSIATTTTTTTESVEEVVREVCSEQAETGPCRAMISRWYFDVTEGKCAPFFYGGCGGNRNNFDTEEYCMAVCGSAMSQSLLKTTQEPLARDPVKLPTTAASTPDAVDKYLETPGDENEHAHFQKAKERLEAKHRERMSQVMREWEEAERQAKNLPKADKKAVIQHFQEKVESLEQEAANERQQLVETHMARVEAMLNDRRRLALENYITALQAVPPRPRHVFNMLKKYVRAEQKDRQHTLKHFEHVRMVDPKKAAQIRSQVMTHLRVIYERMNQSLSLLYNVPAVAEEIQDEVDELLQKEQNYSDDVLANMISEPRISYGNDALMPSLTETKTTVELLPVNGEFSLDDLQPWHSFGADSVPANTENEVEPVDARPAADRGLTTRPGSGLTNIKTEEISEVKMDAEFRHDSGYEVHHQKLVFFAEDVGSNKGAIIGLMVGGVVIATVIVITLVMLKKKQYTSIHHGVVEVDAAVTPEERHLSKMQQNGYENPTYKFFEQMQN
Sequence of Cyclin-dependent kinase 1 (P06493 whole entry): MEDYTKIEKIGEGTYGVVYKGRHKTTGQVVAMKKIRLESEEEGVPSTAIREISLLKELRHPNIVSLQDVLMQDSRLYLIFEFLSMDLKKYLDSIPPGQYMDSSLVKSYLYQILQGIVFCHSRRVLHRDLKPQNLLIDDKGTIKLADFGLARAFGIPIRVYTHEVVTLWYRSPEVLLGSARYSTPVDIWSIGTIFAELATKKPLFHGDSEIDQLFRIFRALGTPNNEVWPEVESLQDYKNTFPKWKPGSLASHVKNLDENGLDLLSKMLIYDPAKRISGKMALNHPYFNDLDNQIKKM

As to `O=C(NCCc1ccc(O)cc1)C1CCC2=Nc3ccc(Br)cc3CN21` (stereo unspecified), the viability at 100 µM in [1] stood at 78.6%.
Consider `COc1cc2c(Nc3ccc(C(=O)/C=C/c4nc(C)c(C)nc4C)cc3)ncnc2c(OC)c1OC`, for which the IC50 in test [2] amounted to 0.1 µM; in [3], 47.4 µM; in [4], 26.7 µM; in [5], 22.4 µM.
Consider `COC(=N)c1nc2ccc3ncnc(Nc4ccc(Cl)cc4Cl)c3c2s1`, for which the IC50 was above 10 µM in test [6], 0.059 µM in [7], 0.0888 µM in test [8] and 0.0228 µM in test [9].
In the case of `CSc1nc2ccccc2c(=O)n1-c1c(F)cccc1F`, the IC50 in test [10] and in test [11] was 3.5 µM throughout.
